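Compound exposure: 48 hours, 5 concentrations, 96-well plates. GI50 = concentration required for 50% inhibition of growth.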 Calls of active or inactive are those of the source. Cut-off read from the data, not from the text of the source: active = GI50 up to about 1.1 µM and inactive = higher.
Key:
Experiment in all cases: NCI-60 cell line screen, 48 h
[1] = tested on: MOLT-4
[2] = tested on: ACHN
[3] = tested on: MCF7
[4] = tested on: K562
[5] = tested on: SW-620
[6] = tested on: SN12C
[7] = tested on: PC-3
[8] = tested on: TK-10
[9] = tested on: MDA-N
[10] = tested on: SK-MEL-2
[11] = tested on: RXF 393
[12] = tested on: HCT-15
[13] = tested on: MDA-MB-435
[14] = tested on: COLO 205
[15] = tested on: NCI/ADR-RES
[16] = tested on: SNB-75
[17] = tested on: NCI-H460
[18] = tested on: T47D
[19] = tested on: EKVX
[20] = tested on: SK-OV-3

Compound | GI50 [1] | GI50 [2] | GI50 [3] | GI50 [4] | GI50 [5] | GI50 [6] | GI50 [7] | GI50 [8] | GI50 [9] | GI50 [10] | GI50 [11] | GI50 [12] | GI50 [13] | GI50 [14] | GI50 [15] | GI50 [16] | GI50 [17] | GI50 [18] | GI50 [19] | GI50 [20]
CCOc1ccc(-n2c(=O)n3c(Nc4ccc(Cl)cc4)nc4c(c(=O)n(C)c(=O)n4C)n3c2=O)cc1 | 23.9 µM (inactive) | 43.4 µM (inactive) | 57.3 µM (inactive) | 29.6 µM (inactive) | 33.9 µM (inactive) | 27.2 µM (inactive) | 47.6 µM (inactive) | 18.8 µM (inactive) | 32.7 µM (inactive) | 26.4 µM (inactive) | 26.6 µM (inactive) | 20.7 µM | 20.3 µM (inactive) | 21.6 µM (inactive) | > 100 µM (inactive) | 13.7 µM (inactive) | 19.5 µM (inactive) | 39.2 µM (inactive) | 24.9 µM (inactive) | –
O=C1COc2ccc([N+](=O)[O-])cc2C(=O)C1 | > 10 µM (inactive) | > 10 µM (inactive) | > 10 µM (inactive) | > 10 µM (inactive) | > 10 µM (inactive) | > 10 µM (inactive) | > 10 µM (inactive) | > 10 µM (inactive) | > 10 µM (inactive) | > 10 µM (inactive) | > 10 µM (inactive) | > 10 µM | > 10 µM (inactive) | > 10 µM (inactive) | > 10 µM (inactive) | – | > 10 µM (inactive) | > 10 µM (inactive) | > 10 µM (inactive) | > 10 µM (inactive)
CCCCCCCCCCCCOCC(COP(=O)(O)OCCN=[N+]=[N-])OC(=O)CCCCCCCCCCC (stereo not drawn) | > 100 µM (inactive) | > 100 µM (inactive) | > 100 µM (inactive) | > 100 µM (inactive) | > 100 µM (inactive) | > 100 µM (inactive) | > 100 µM (inactive) | > 100 µM (inactive) | > 100 µM (inactive) | > 100 µM (inactive) | > 100 µM (inactive) | > 100 µM | > 100 µM (inactive) | > 100 µM (inactive) | > 100 µM (inactive) | – | > 100 µM (inactive) | > 100 µM (inactive) | – | > 100 µM (inactive)
O=c1[nH]nc(Nc2ccc(Cl)cc2)c2nnn(C3CCCCC3)c12 | – | > 100 µM (inactive) | 58.5 µM (inactive) | 26.5 µM (inactive) | 62.4 µM (inactive) | > 100 µM (inactive) | > 100 µM (inactive) | 53 µM (inactive) | > 100 µM (inactive) | > 100 µM (inactive) | 30.4 µM (inactive) | 72.8 µM | 46.3 µM (inactive) | 59.2 µM (inactive) | 32.1 µM (inactive) | 26.3 µM (inactive) | 41.4 µM (inactive) | > 100 µM (inactive) | 84.1 µM (inactive) | –
COc1ccc(CCN2CCN(CCc3ccc(OC)cc3)CC2)cc1 | > 100 µM (inactive) | > 100 µM (inactive) | > 100 µM (inactive) | > 100 µM (inactive) | > 100 µM (inactive) | > 100 µM (inactive) | > 100 µM (inactive) | > 100 µM (inactive) | > 100 µM (inactive) | > 100 µM (inactive) | 26.2 µM (inactive) | > 100 µM | > 100 µM (inactive) | > 100 µM (inactive) | > 100 µM (inactive) | – | > 100 µM (inactive) | > 100 µM (inactive) | > 100 µM (inactive) | > 100 µM (inactive)
OCCN1CN(c2nc(N3CN(CCO)C3)nc(N3CN(CCO)C3)n2)C1 | 33.7 µM (inactive) | 31.6 µM (inactive) | 21.3 µM (inactive) | 25.4 µM (inactive) | 30 µM (inactive) | 18 µM (inactive) | 22.1 µM (inactive) | 30.6 µM (inactive) | 18.1 µM (inactive) | 18.7 µM (inactive) | 22.7 µM (inactive) | 22.3 µM | 17.8 µM (inactive) | 28 µM (inactive) | 31.1 µM (inactive) | 23.1 µM (inactive) | 19.5 µM (inactive) | 25.8 µM (inactive) | 26.8 µM (inactive) | –
COc1cccc2cc(C(C)=O)c(=O)oc12 | > 100 µM (inactive) | > 100 µM (inactive) | > 100 µM (inactive) | > 100 µM (inactive) | > 100 µM (inactive) | > 100 µM (inactive) | > 100 µM (inactive) | > 100 µM (inactive) | > 100 µM (inactive) | > 100 µM (inactive) | > 100 µM (inactive) | – | > 100 µM (inactive) | > 100 µM (inactive) | > 100 µM (inactive) | > 100 µM (inactive) | > 100 µM (inactive) | 12.6 µM (inactive) | > 100 µM (inactive) | –
NC(=O)CC(N)C(N)=O (stereo not drawn) | > 100 µM (inactive) | > 100 µM (inactive) | > 100 µM (inactive) | > 100 µM (inactive) | > 100 µM (inactive) | > 100 µM (inactive) | > 100 µM (inactive) | > 100 µM (inactive) | > 100 µM (inactive) | > 100 µM (inactive) | > 100 µM (inactive) | > 100 µM | > 100 µM (inactive) | > 100 µM (inactive) | > 100 µM (inactive) | > 100 µM (inactive) | > 100 µM (inactive) | > 100 µM (inactive) | – | > 100 µM (inactive)
C=CCC1C(O[Si](C)(C)C(C)(C)C)C(CO[Si](C)(C)C(C)(C)C)OC1n1ccc(=O)[nH]c1=O (stereo not drawn) | 0.597 µM (active) | 1.6 µM (inactive) | 1.15 µM (inactive) | 1.22 µM (inactive) | 1.16 µM (inactive) | 1.38 µM (inactive) | 1.53 µM (inactive) | – | 1.51 µM (inactive) | 2.14 µM (inactive) | 1.8 µM (inactive) | 1.15 µM | 1.47 µM (inactive) | 1.63 µM (inactive) | 1.66 µM (inactive) | 1.24 µM (inactive) | 1.16 µM (inactive) | 1.3 µM (inactive) | 1.41 µM (inactive) | –
Fc1cccc(Cl)c1C1SCc2nc3cc4ccccc4cc3n21 (stereo not drawn) | > 100 µM (inactive) | > 100 µM (inactive) | > 100 µM (inactive) | > 100 µM (inactive) | > 100 µM (inactive) | 61.1 µM (inactive) | > 100 µM (inactive) | 62.7 µM (inactive) | > 100 µM (inactive) | > 100 µM (inactive) | > 100 µM (inactive) | > 100 µM | > 100 µM (inactive) | > 100 µM (inactive) | 64.6 µM (inactive) | – | – | > 100 µM (inactive) | > 100 µM (inactive) | 37 µM (inactive)
COC(=O)c1c(O)ccc2c1c1c(n2CCc2ccc(OC)c(OC)c2)C(=O)c2ccccc2C1=O | 9.25 µM (inactive) | 18.2 µM (inactive) | 17.9 µM (inactive) | 20.5 µM (inactive) | – | 21.9 µM (inactive) | 14.9 µM (inactive) | 21.6 µM (inactive) | 10.9 µM (inactive) | 16.4 µM (inactive) | 16.8 µM (inactive) | 12.7 µM | 14 µM (inactive) | 3.57 µM (inactive) | 10.8 µM (inactive) | – | 5.01 µM (inactive) | 12 µM (inactive) | 20.5 µM (inactive) | 19.4 µM (inactive)
O=C(O)[C@@H]1CCS(=O)(=O)N1 | > 100 µM (inactive) | > 100 µM (inactive) | > 100 µM (inactive) | – | > 100 µM (inactive) | > 100 µM (inactive) | > 100 µM (inactive) | > 100 µM (inactive) | > 100 µM (inactive) | > 100 µM (inactive) | > 100 µM (inactive) | > 100 µM | > 100 µM (inactive) | > 100 µM (inactive) | > 100 µM (inactive) | – | > 100 µM (inactive) | > 100 µM (inactive) | > 100 µM (inactive) | > 100 µM (inactive)
Cc1ccc2c(c1)S(=O)(=O)c1ccc3ccccc3c1N2 | > 100 µM (inactive) | > 100 µM (inactive) | > 100 µM (inactive) | > 100 µM (inactive) | > 100 µM (inactive) | > 100 µM (inactive) | > 100 µM (inactive) | > 100 µM (inactive) | > 100 µM (inactive) | > 100 µM (inactive) | > 100 µM (inactive) | > 100 µM | > 100 µM (inactive) | > 100 µM (inactive) | > 100 µM (inactive) | – | > 100 µM (inactive) | > 100 µM (inactive) | > 100 µM (inactive) | > 100 µM (inactive)
COc1cccc2cc(C(=O)O)c(=O)oc12 | > 100 µM (inactive) | > 100 µM (inactive) | > 100 µM (inactive) | > 100 µM (inactive) | > 100 µM (inactive) | > 100 µM (inactive) | > 100 µM (inactive) | > 100 µM (inactive) | > 100 µM (inactive) | > 100 µM (inactive) | > 100 µM (inactive) | > 100 µM | > 100 µM (inactive) | > 100 µM (inactive) | > 100 µM (inactive) | > 100 µM (inactive) | > 100 µM (inactive) | > 100 µM (inactive) | > 100 µM (inactive) | –
N#C[BH2-][n+]1ccc(C(=O)NNCc2ccc(F)cc2)cc1 | > 100 µM (inactive) | > 100 µM (inactive) | > 100 µM (inactive) | > 100 µM (inactive) | > 100 µM (inactive) | > 100 µM (inactive) | > 100 µM (inactive) | > 100 µM (inactive) | > 100 µM (inactive) | > 100 µM (inactive) | > 100 µM (inactive) | > 100 µM | > 100 µM (inactive) | > 100 µM (inactive) | > 100 µM (inactive) | > 100 µM (inactive) | > 100 µM (inactive) | > 100 µM (inactive) | > 100 µM (inactive) | –
